Measurements reported in ChEMBL document CHEMBL1139168, “Pyrrolidino-tetrahydroisoquinolines as potent dual H3 antagonist and serotonin transporter inhibitors” (Bioorg Med Chem Lett, 2007).
pKi: −log10 of the molar value.

How the values were obtained:
[1] = molecular target: Sodium-dependent serotonin transporter (Rattus norvegicus, UniProt P31652); assay: Displacement of [3H]citalopram from rat brain SERT
[2] = molecular target: Histamine H3 receptor (Homo sapiens, UniProt Q9Y5N1); assay: Binding affinity at human histamine H3 receptor expressed in SK-N-MC cells
Chain of Histamine H3 receptor (Q9Y5N1 whole entry): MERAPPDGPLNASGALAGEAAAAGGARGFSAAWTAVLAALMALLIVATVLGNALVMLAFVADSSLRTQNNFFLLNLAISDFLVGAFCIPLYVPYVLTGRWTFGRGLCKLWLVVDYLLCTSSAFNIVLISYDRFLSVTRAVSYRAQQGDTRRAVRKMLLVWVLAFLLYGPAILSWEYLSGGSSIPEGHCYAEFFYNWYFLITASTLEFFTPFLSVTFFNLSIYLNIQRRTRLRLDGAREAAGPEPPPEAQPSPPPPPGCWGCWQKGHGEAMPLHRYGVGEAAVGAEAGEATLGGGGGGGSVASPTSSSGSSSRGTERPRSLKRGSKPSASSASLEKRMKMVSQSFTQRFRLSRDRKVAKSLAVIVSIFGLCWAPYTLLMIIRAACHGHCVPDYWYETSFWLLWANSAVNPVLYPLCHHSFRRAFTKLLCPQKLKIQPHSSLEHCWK

[3] = system: Mus musculus; assay: Inhibition of SERT in ip dosed 5-hydroxytryptophan potentiated head twitch mouse model assessed as increase in head twitches after 24 hrs; type: functional, organism-based
[4] = system: Rattus norvegicus; assay: Increase in extracellular dopamine level in rat brain frontal cortex at 1 mg/kg, ip after 24 hrs relative to basal level; type: functional; settings: route intraperitoneal
[5] = system: Rattus norvegicus; assay: Increase in extracellular serotonin level in rat brain frontal cortex at 1 mg/kg, ip after 24 hrs relative to basal level; type: functional; settings: route intraperitoneal
[6] = system: Mus musculus; assay: Inhibition of SERT in 5-hydroxytryptophan potentiated head twitch mouse model assessed as increase in head twitch response at 10 mg/kg, ip relative to control; type: functional; set-up: scale not given: the % may be the effect or the level left; settings: route intraperitoneal
[7] = system: Rattus norvegicus; assay: Increase in extracellular dopamine level in rat brain frontal cortex at 1 mg/kg, ip after 8 hrs relative to basal level; type: functional; settings: route intraperitoneal
[8] = Bioavailability in rat 10 mg/kg, po; type: ADME, organism-based; settings: in vivo
[9] = system: Mus musculus; assay: Inhibition of SERT in 5-hydroxytryptophan potentiated head twitch mouse model assessed as increase in head twitch response at 3 mg/kg, ip relative to control; type: functional; set-up: scale not given: the % may be the effect or the level left; settings: route intraperitoneal
[10] = Half life in rat at 1 mg/kg, iv or 10 mg/kg, po; type: ADME, organism-based; settings: in vivo
[11] = Cmax in mouse brain at 30 mg/kg, ip
[12] = system: Rattus norvegicus; assay: Increase in extracellular serotonin level in rat brain frontal cortex at 1 mg/kg, ip after 8 hrs relative to basal level; type: functional; settings: route intraperitoneal

Chain of Sodium-dependent serotonin transporter (P31652 whole entry): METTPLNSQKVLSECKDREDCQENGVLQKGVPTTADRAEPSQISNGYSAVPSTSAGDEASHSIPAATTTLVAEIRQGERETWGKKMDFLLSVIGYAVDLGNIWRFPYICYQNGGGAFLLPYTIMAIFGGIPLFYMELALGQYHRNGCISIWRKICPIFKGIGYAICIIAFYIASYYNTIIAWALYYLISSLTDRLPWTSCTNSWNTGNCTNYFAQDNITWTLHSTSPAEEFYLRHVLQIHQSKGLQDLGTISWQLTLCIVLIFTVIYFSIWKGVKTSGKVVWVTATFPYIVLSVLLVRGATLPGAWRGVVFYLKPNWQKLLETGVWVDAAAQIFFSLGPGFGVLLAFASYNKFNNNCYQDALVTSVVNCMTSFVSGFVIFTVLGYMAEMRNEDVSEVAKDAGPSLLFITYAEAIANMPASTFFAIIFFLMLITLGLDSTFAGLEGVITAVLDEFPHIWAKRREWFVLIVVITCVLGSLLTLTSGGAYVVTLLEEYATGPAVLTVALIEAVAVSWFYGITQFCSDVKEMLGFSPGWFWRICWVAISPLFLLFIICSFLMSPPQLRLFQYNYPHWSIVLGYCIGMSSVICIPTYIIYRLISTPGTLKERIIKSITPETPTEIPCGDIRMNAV

pKi [1]	pKi [2]	Structure (SMILES)	other results
8.89	9.15	Oc1cccc(C2CN3CCCC3c3cc(OCCCN4CCCCC4)ccc32)c1 (racemic)	
8.06	8.70	C#Cc1cccc(C2CN3CCCC3c3cc(OCCCN4CCCCC4)ccc32)c1 (racemic)	
8.20	8.66	Clc1ccc(C2CN3CCCC3c3cc(OCCCN4CCCCC4)ccc32)cc1 (racemic)	
8.52	8.70	Cc1ccc(C2CN3CCCC3c3cc(OCCCN4CCCCC4)ccc32)cc1 (racemic)	
8.70	9.05	c1ccc(C2CN3CCCC3c3cc(OCCCN4CCCCC4)ccc32)cc1 (racemic)	
7.85	8.89	COc1ccccc1C1CN2CCCC2c2cc(OCCCN3CCCCC3)ccc21 (racemic)	
8.03	8.77	Oc1ccc(C2CN3CCCC3c3cc(OCCCN4CCCCC4)ccc32)cc1 (racemic)	
7.61	8.92	N#Cc1ccc(C2CN3CCCC3c3cc(OCCCN4CCCCC4)ccc32)cc1 (racemic)	
8.15	8.40	C#Cc1ccc(C2CN3CCCC3c3cc(OCCCN4CCCCC4)ccc32)cc1 (racemic)	
7.68	8.43	Oc1ccccc1C1CN2CCCC2c2cc(OCCCN3CCCCC3)ccc21 (racemic)	
7.96	8.40	FC(F)(F)Oc1ccc(C2CN3CCCC3c3cc(OCCCN4CCCCC4)ccc32)cc1 (racemic)	
		COc1ccc(C2CN3CCCC3c3cc(OCCCN4CCCCC4)ccc32)cc1 (racemic)	Activity [3]: Dose-dependent effect; Activity [4]: 300%; Activity [5]: 500%; Activity [6]: 661%; Activity [7]: 300%; bioavailability [8]: 16%; Activity [9]: 384%; half-life [10]: 15.7 h; Cmax [11]: 1280 nM; Activity [12]: 500%
8.33	8.77	COc1cccc(C2CN3CCCC3c3cc(OCCCN4CCCCC4)ccc32)c1 (racemic)	
8.48	8.80	CN(C)c1ccc(C2CN3CCCC3c3cc(OCCCN4CCCCC4)ccc32)cc1 (racemic)	
8.06	8.64	Clc1ccccc1C1CN2CCCC2c2cc(OCCCN3CCCCC3)ccc21 (racemic)	
8.28	8.89	O=[N+]([O-])c1ccc(C2CN3CCCC3c3cc(OCCCN4CCCCC4)ccc32)cc1 (racemic)	
8.43	8.77	Fc1ccc(C2CN3CCCC3c3cc(OCCCN4CCCCC4)ccc32)cc1 (racemic)	
8.48	8.60	CSc1ccc(C2CN3CCCC3c3cc(OCCCN4CCCCC4)ccc32)cc1 (racemic)	
7.66	8.70	FC(F)(F)c1cccc(C2CN3CCCC3c3cc(OCCCN4CCCCC4)ccc32)c1 (racemic)	

Structure (SMILES)	pKi [1]	pKi [2]	other results
FC(F)(F)c1ccc(C2CN3CCCC3c3cc(OCCCN4CCCCC4)ccc32)cc1 (racemic)	7.57	8.33	
Clc1cccc(C2CN3CCCC3c3cc(OCCCN4CCCCC4)ccc32)c1 (racemic)	8.40	8.92	
